Molecules are shown by their SMILES.

A word on the melting point: it is the temperature of the solid-liquid transition. The compound `CC(C)(C)c1cnc(N)s1` registered a melting point of 79 to 81 °C.

Consider `Cc1cc(-n2nc(C)cc2N)nc(C)n1`, for which the melting point is 104 to 106 °C.

Compound `Nc1nc(-c2ccccc2Cl)ns1` displayed a melting point of 119 to 121 °C.

Take `CN(CC(=O)O)C(=O)c1cc(Cl)nnc1Cl`: the melting point lay within 175 to 177 °C.

`Cc1cnn(CCC(=O)O)c1` yielded a melting point of 94 to 96 °C.

For `CC(=O)CC(=O)c1cnn(C)c1`, the melting point was 88 to 90 °C.

Regarding `O=Cc1cc(Cl)c2ccccc2c1O`, the melting point was in the range of 94 to 96 °C.

`O=S(=O)(Cl)C1CCCCC1O` (configuration not stated) had a melting point of 49 to 51 °C.

Consider `NNC(=O)CNc1ccccc1F`, for which the melting point was 99 to 101 °C.

In the case of `Cc1cc(S(=O)(=O)N(C)C)cc(N)c1C`, the melting point fell in the range of 178 to 180 °C.

`CC1(C)C(=O)NC(=O)N1CC#N` showed a melting point of 147 to 149 °C.

With `Oc1ncnc2c(F)cc(Br)cc12`, the melting point was in the range of 299 to 301 °C.

Take `O=C(O)c1ccc(-c2cscn2)cc1`: the melting point was in the range of 278 to 280 °C.

Regarding `CC(=O)Nc1cccc(NC(=O)C(Br)C(C)C)c1` (configuration not stated), the melting point fell in the range of 179 to 181 °C.

As for `Cc1cccc(C(=O)Nc2cccc(O)c2)n1`, the melting point lay in the range of 177 to 179 °C.

As for `CC(C)CCOc1ccc(C2(C)NC(=O)NC2=O)cc1` (configuration not stated), the melting point lay in the range of 110 to 112 °C.

In the case of `O=C1CC(c2ccccc2)N1` (configuration not stated), the melting point is 107 to 109 °C.

In turn, `COc1ccc(Br)cc1NCc1cccnc1` had a melting point of 66 to 68 °C.

`N#CC(NC(=O)c1ccccc1)C1CC1` (configuration not stated): the melting point lay within 91 to 93 °C.

Take `NC(=S)c1ccn[nH]1`: the melting point lay in the range of 183 to 185 °C.

The compound `COc1ccc(-c2cc(C(=O)O)no2)c(F)c1` returned a melting point of 194 to 196 °C.

`Clc1ccc2cccnc2c1CBr`: the melting point fell in the range of 119 to 121 °C.

In turn, `O=C(/C=C/c1ccco1)C(C(=O)/C=C/c1ccco1)=C1SCCCCS1` came in with a melting point of 137 to 139 °C.

In turn, `O=C(O)COc1ccc(-c2ccccc2)cc1` showed a melting point of 195 to 197 °C.

In turn, `Fc1ccccc1CCNC1=NCCS1` came in with a melting point of 95 to 97 °C.

For the compound `CC(C)(C)C(=O)Nc1nccnc1C(=O)O`, the melting point was in the range of 96 to 98 °C.

For `CCNC(=O)Cc1ccc(N)cc1`, the melting point was in the range of 117 to 119 °C.

`c1csc(-c2nn[nH]n2)c1` returned a melting point of 201 to 203 °C.

Compound `O=C(O)c1ccc(I)c(Br)c1` yielded a melting point of 243 to 245 °C.

Compound `Cc1c(C(=O)O)oc2c1C(=O)CC(C)(C)C2` had a melting point of 199 to 201 °C.

Compound `Cc1oc(-c2cccs2)nc1CC(=O)O` had a melting point of 185 to 187 °C.

Turning to `N#Cc1c(F)cccc1-n1ccc(N)n1`, the melting point was 134 to 136 °C.

`COc1cc(C)nc(NN)n1` registered a melting point of 116 to 118 °C.

On to `O=C(O)Cc1cc(Cl)c2c(c1)OCCO2`, for which the melting point is 176 to 178 °C.

With `Nc1ncc(Cc2cccc(Cl)c2Cl)s1`, the melting point is 140 to 142 °C.

Consider `CNC(=O)CC(=O)O`, for which the melting point lay in the range of 104 to 106 °C.

With `COCCn1c(S)nnc1-c1ccccc1`, the melting point is 133 to 135 °C.

`O=C(CNCc1ccc(Cl)cc1)Nc1ccccc1F` registered a melting point of 90 to 92 °C.

In the case of `COC(=O)c1ccc2c(c1)NCC(=O)N2`, the melting point lay in the range of 252 to 254 °C.

Compound `CCc1c(C)nc2ccccc2c1N` yielded a melting point of 148 to 150 °C.

Compound `O=C(O)c1cc(-c2ccc(Cl)cc2)nn1-c1ccccc1` showed a melting point of 214 to 216 °C.

In the case of `O=C(O)c1cc(-c2cccc3ccccc23)nc2ccccc12`, the melting point was in the range of 225 to 227 °C.

Compound `O=C(Nc1cccc(I)c1)C(F)(F)F` yielded a melting point of 129 to 131 °C.

For `CCNC(=O)NCCCO`, the melting point was 53 to 55 °C.

As for `COc1ccc(NC(=O)c2ccc(N)cc2)cc1`, the melting point was 187 to 189 °C.

Compound `CC1C(=O)Nc2ccc(S(=O)(=O)Cl)cc21` (configuration not stated) gave a melting point of 164 to 168 °C.

`Oc1ccc(OCc2ccncc2)cc1` displayed a melting point of 179 to 181 °C.

Regarding `Cc1oc(C(=O)O)cc1Cn1cc(Br)cn1`, the melting point is 154 to 156 °C.

Turning to `CC(C)(c1cc(N)on1)S(C)(=O)=O`, the melting point was 179 to 181 °C.

`Nc1cc(F)c(Br)cc1N`: the melting point lay within 104 to 106 °C.

Take `Cc1nnnn1-c1ccc(Br)cc1`: the melting point lay in the range of 116 to 118 °C.

On to `Nc1cnn(CC(=O)O)c1`, for which the melting point is 206 to 208 °C.

As to `O=S1(=O)CCCN1c1cccc(Cl)c1`, the melting point lay in the range of 85 to 87 °C.

Regarding `O=C(O)Cn1ncc2ccc([N+](=O)[O-])cc21`, the melting point lay in the range of 219 to 221 °C.

`O=C(O)c1cnc2ccc(Br)cn2c1=O`: the melting point lay in the range of 218 to 220 °C.

`Cc1cc(CO)c(C)n1-c1ccccc1` came in with a melting point of 77 to 79 °C.

In turn, `CC1CCC2(CC1)COC(=O)N2` (configuration not stated) returned a melting point of 126 to 128 °C.

On to `Cc1ccc(C(=O)Nc2cccc(C=O)c2)cc1`, for which the melting point is 130 to 132 °C.

`O=Cc1cc(C(=O)O)co1` gave a melting point of 165 to 167 °C.

For `O=C(O)Cc1csc(NC(=O)c2ccc(Br)o2)n1`, the melting point is 214 to 216 °C.

Compound `Nc1ccccc1CC(F)(F)F` displayed a melting point of 44 to 46 °C.

For the compound `O=C(O)C1CC(=O)N(c2ccccc2F)C1` (configuration not stated), the melting point lay in the range of 130 to 135 °C.

On to `O=C(O)C1(C(F)(F)F)CCN(Cc2ccccc2)C1` (configuration not stated), for which the melting point is 210 to 212 °C.

In the case of `O=C(O)c1ccc(F)c(S(=O)(=O)N2CCCC2)c1`, the melting point lay within 223 to 225 °C.

Take `CCc1ccc(C(C)CC(=O)O)cc1` (configuration not stated): the melting point lay within 65 to 67 °C.

In turn, `NC(CSCc1cccc2ccccc12)C(=O)O` (configuration not stated) gave a melting point of 199 to 201 °C.

`COc1ccc(Oc2ccc(C=O)cc2)cc1` yielded a melting point of 65 to 67 °C.

In turn, `O=C(O)C(c1ccc(Br)cc1)N1CCCC1` (configuration not stated) returned a melting point of 214 to 216 °C.

In the case of `Cc1coc(-c2cc(N)ccc2C)n1`, the melting point lay within 52 to 54 °C.

In turn, `CCNC(=O)CCCl` showed a melting point of 64 to 66 °C.

The compound `CCOC(=O)c1cc2ccc(Br)cc2[nH]1` displayed a melting point of 187 to 189 °C.

In turn, `N#Cc1ccc(CN2CCc3ccccc32)cc1` had a melting point of 76 to 78 °C.

`O=C(O)CCC(=O)c1cc(Cl)ccc1Cl` had a melting point of 97 to 99 °C.

For the compound `Nc1nc2c(s1)CCc1ccccc1-2`, the melting point lay within 58 to 66 °C.

`CS(=O)(=O)c1ccc2c(c1)NC(=O)CO2` had a melting point of 229 to 231 °C.

Consider `O=C(O)Cc1cccc(OCc2ccncc2)c1`, for which the melting point fell in the range of 138 to 140 °C.

Compound `Cc1nn2cnnc2[nH]c1=O` yielded a melting point of 195 to 197 °C.

Turning to `Nc1nc2ccc(SC(F)F)cc2s1`, the melting point lay within 105 to 107 °C.

The compound `Cc1noc(C)c1COc1ccccc1C(=O)O` showed a melting point of 172 to 174 °C.

With `O=C(O)c1cccc(S(=O)(=O)N2CCOCC2)c1`, the melting point was 198 to 200 °C.

Consider `O=C(CC1SC(N2CCCC2)=NC1=O)Nc1ccc(C(=O)O)cc1` (configuration not stated), for which the melting point lay in the range of 180 to 183 °C.

`CC(=O)c1nc2ccc(Cl)cc2[nH]1` came in with a melting point of 173 to 175 °C.

`CN1CCN(CCC(=O)NN)CC1`: the melting point was in the range of 87 to 89 °C.

As to `NC(=O)COc1ccc(C(=O)CCl)cc1`, the melting point fell in the range of 163 to 165 °C.

`CCOC(=O)/C(C#N)=C\Nc1cc(Cl)ccc1F` yielded a melting point of 147 to 149 °C.

With `CC1CNc2cc(F)ccc2C(=O)N1` (configuration not stated), the melting point lay in the range of 169 to 171 °C.

With `O=c1oc2ccc([N+](=O)[O-])cc2n1CCCBr`, the melting point fell in the range of 109 to 111 °C.

The record behind these values is a melting point compilation (Tetko et al.).
